Experimental data as given in patent publication US20040005311A1, “Dietary supplement compositions” (priority 2003, published 2004).

Tested on: Alzheimer's disease-related / dementia-related symptoms
Test: Dietary supplementation of dementia subjects (case accounts by caregiver and physician)
Assay type: in vivo, human
Settings: Subject #3; diet also supplemented with yellow corn, pineapple and tomato sauce products
Procedure: Prior to addressing the patient's dementia problem, a complete diagnosis of the subject was performed by a qualified physician.
The diets of these four subjects were also supplemented, to varying degrees, with yellow corn, pineapple and tomato sauce products.

In the case of `CC(C)=CCC/C(C)=C/C=C/C(C)=C/C=C/C(C)=C/C=C/C=C(C)/C=C/C=C(C)/C=C/C=C(\C)CCC=C(C)C` [lycopene], the “symptoms (memory loss, anxiety, eating less)” value is reported as “still exhibiting reduced symptoms”.
